# Source: patent publication US6204266A, “Pharmaceutical, cosmetic and/or food composition having anti-oxidant properties” (Universite Catholique De Louvain Halles Universitaires, priority 1995, dated 2001)
# How the values were obtained:
# [1] = In vitro toxicity on other mammalian cell types (FIG. 11); format: cell-based; details: pig (EAP) endothelial cells, read-out: concentration at which a toxic effect can possibly be observed
# Protocol: Similar in vitro toxicity tests were performed on other mammalian (porcine, human, etc.) cell types.
# FIG. 11 depicts the percentage survival of different cell types (fibroblasts, human (ECV) or pig (EAP) endothelial cells) as a function of increasing doses of CLZ-9 (molar). A toxic effect of the products can possibly be observed on a certain cell type at high concentrations (10^-4 M in pigs).
# Human fibroblasts = assay: Protection of human fibroblasts against oxidative stress inducer tert-butyl hydroperoxide (t-BHP); format: cell-based
# Protocol: Human fibroblasts were subjected to an oxidative stress inducer (tert-butyl hydroperoxide (t-BHP)) for 6 to 12 hours in the absence and in the presence of increasing doses of coelenterazine and its derivatives.
# In the same experimental series, the efficacy of vitamin E (α-tocopherol) (Troxol®), a major antioxidant of animal cells, was compared.
# [2] = test system: Cu-Zn superoxide dismutase; assay: Competition of imidazolopyrazine and superoxide dismutase for superoxide anion (xanthine oxidase/hypoxanthine), luminescence; format: biochemical; details: for change of slope of the relationship linking IO/I to the superoxide dismutase concentration: when the concentration of the luminescent compound is increased
# Text: This method is based on the capacity of imidazolopyrazines to react with the superoxide anion, emitting light.
# In these experiments, a constant level of superoxide anion is generated by an enzymatic method, by reacting xanthine oxidase with hypoxanthine in the presence of oxygen.
# The maximum light intensity, measured by a luminometer during the competition reaction, is linked to the ratio in [sic] imidazolopyrazine and superoxide dismutase concentrations, as well as to that of the respective rate constants.
# Consequently, knowing the rate constant of the reaction of the competing antioxidant with the superoxide anion (K3), the rate constant of the reaction of the imidazolopyrazine with the superoxide anion (K2) may be calculated:
# By carrying out this experiment at two imidazolopyrazine concentrations, it is possible to eliminate K1 [O2^2- ] corresponding to the spontaneous disproportionation reaction of O2^2-. The slopes A and B of the straight lines linking IO /I [sic] to the superoxide dismutase concentration are: [formula]
# K2 =K3 /([IMPZ]1 -[IMPZ]2)/(1/A)-1/B)
# When the imidazolopyrazine concentration is increased, the slope of the relationship linking IO /I [sic] to the superoxide dismutase concentration should decrease.
# human fibroblasts (MRC5) = assay: In vitro toxicity on human fibroblasts (MRC5), total protein content; format: cell-based; details: concentration of 0.1 mM (10^-4 M), 1% ethanol
# Protocol: Each of the imidazolopyrazine derivatives tested was applied to human fibroblasts (MRC5) in culture. The doses of the compounds ranged from 10^-8 to 10^-4 M. These compounds were applied 48 hours after the cells were inoculated into wells (volume=150 μl; 3000 cells per well).
# After a further 24 hour period, the culture medium is renewed, the cells are incubated for 72 hours and their level of survival and of growth is evaluated by measuring the total protein contents in each well (Biorad).
# mice [3] = assay: In vivo toxicity in mice; details: 20 μg/kg, 5 intraperitoneal injections
# In vivo toxicity in mice = details: mouse, in vivo, ip, 0.02 mg/kg
# mice [4] = details: mouse, in vivo
# [5] = Stability in aqueous medium (buffers pH 4, 7, 10; assayed by luminescence in DMSO); format: physicochemical; details: irrespective of the pH
# Protocol: FIG. 7 depicts the stability of the derivative 10 in an aqueous medium. Three 10^-5 M solutions of CLZN-10 were prepared in citrate (pH 4), phosphate (pH 7) and glycine (pH 10) buffers. Aliquots of these solutions were sampled regularly and the CLZN-10 assayed by luminescence in DMSO.
# In comparison with coelenterazine, derivatives comprising additional phenyl groups display better stability.
# [6] = t-BHP-treated human fibroblasts
smiles,measurement,setting,value
"Cc1nc2c(Cc3ccccc3)[nH]c(-c3ccc(O)cc3)cn-2c1=O [CLZN-9, 3,7-dihydro-2-methyl-6-(p-hydroxyphenyl)-8-benzylimidazo[1,2-a]pyrazyn-3-one]",MCC,[1],100 µM
same,EC100,"Human fibroblasts; Fibroblast, t-BHP-treated human fibroblasts, read-out: concentration at which protection is total",1 µM
same,minimal effective concentration,"Human fibroblasts; Fibroblast, t-BHP-treated human fibroblasts, read-out: concentration from which the improvement of survival is significant",0.02 µM
same,survival of the t-BHP-treated cells,"Human fibroblasts; t-BHP 10^-4 M, without serum (FIG. 8)",most advantageous results
same,antioxidant activity compared with vitamin E,Human fibroblasts; [6],greater than
same,increase of KSOD with imidazolopyrazine concentration (effect),[2],observed
"O=c1c(-c2ccccc2)nc2c(Cc3ccccc3)[nH]c(-c3ccc(O)cc3)cn1-2 [CLZN-10, 3,7-dihydro-2-phenyl-6-(p-hydroxyphenyl)-8-benzylimidazo[1,2-a]pyrazyn-3-one]",increase of KSOD with imidazolopyrazine concentration (effect),[2],observed
"O=c1c(Cc2ccccc2)nc2c(Cc3ccccc3)[nH]c(-c3ccc(O)cc3)cn1-2 [CLZN-11, 3,7-dihydro-2-benzyl-6-(p-hydroxyphenyl)-8-benzylimidazo[1,2-a]pyrazyn-3-one]",toxicity for human fibroblasts (MRC5),human fibroblasts (MRC5),significant toxicity
"Oc1ccc(Cc2nc3c(Cc4ccccc4)nc(-c4ccc(O)cc4)cn3c2O)cc1 [coelenterazine, 3,7-dihydro-2-(p-hydroxybenzyl)-6-(p-hydroxyphenyl)-8-benzylimidazo[1,2-a]pyrazyn-3-one]",toxicity for mice,mice [3],not toxic
same,survival,In vivo toxicity in mice,100%
same,Weight (in grams) after 0 day,mice [4],16.19 grams
same,Weight (in grams) after 6 days,mice [4],22.82 grams
same,Weight (in grams) after 30 days,mice [4],31.57 grams
same,survival,mice [4],5/5
same,growth retardation,mice [4]; ip,no growth retardation is observed
same,antioxidant activity compared with vitamin E,Human fibroblasts; [6],equivalent to
same,stability in an aqueous medium,[5],only a few hours
same,rate constant KSOD,[2]; coelenterazine concentration 50 nM,2×10^9
same,rate constant KSOD,[2]; coelenterazine concentration 400 nM,2.5×10^10
same,increase in rate constant KSOD,[2]; coelenterazine concentration multiplied by 8 (from 50 to 400 nM),12.5 fold
same,change of slope of the relationship linking IO/I to the superoxide dismutase concentration,[2],a rise in the slope
"Nc1cccc2c(=O)[nH][nH]c(=O)c12 [luminol, reference compound]",change of slope of the relationship linking IO/I to the superoxide dismutase concentration,[2],a regular decrease in the slope
"Cc1c(C)c2c(c(C)c1O)CC[C@@](C)(CCC[C@H](C)CCC[C@H](C)CCCC(C)C)O2 [vitamin E, α-tocopherol, reference compound]",protection,"Human fibroblasts; serum (10%) in the culture medium, highest concentrations",60%
